Laboratory results taken from publication doi:10.1101/2023.03.24.534094v2 (biorxiv, 2023).
Read-outs that look alike come from different tables or passages of the source. One block for each compound: values may come before it.

Tests used:
Test in all cases: biochemical
AAK1 = AAK1 (Homo sapiens, UniProt Q2M2I8)
CaMK1d = CaMK1d (Homo sapiens, UniProt Q8IU85)
CaMK4 = target: T1, CaMK4 (Homo sapiens, UniProt Q16566)
T1 sequence (Q16566 1-473): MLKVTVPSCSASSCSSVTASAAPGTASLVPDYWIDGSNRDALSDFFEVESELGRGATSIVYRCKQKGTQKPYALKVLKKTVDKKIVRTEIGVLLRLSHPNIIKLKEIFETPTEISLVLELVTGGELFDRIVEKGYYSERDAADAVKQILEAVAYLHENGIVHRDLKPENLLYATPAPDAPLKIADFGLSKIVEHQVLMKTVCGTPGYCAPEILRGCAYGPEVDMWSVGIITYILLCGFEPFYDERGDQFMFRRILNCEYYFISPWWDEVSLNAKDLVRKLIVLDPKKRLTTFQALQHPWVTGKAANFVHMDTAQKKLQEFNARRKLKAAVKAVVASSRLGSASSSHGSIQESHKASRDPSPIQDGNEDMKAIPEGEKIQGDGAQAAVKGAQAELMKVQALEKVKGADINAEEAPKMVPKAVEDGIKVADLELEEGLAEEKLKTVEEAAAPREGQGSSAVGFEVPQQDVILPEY

EpHA5 = EpHA5 (Homo sapiens, UniProt P54756)
HIPK2 = HIPK2 (Homo sapiens, UniProt Q9H2X6)
JNK2 = JNK2 (Homo sapiens, UniProt P45984)
PLK4 = target: T2, PLK4 (Homo sapiens, UniProt O00444)
T2 sequence (O00444 1-970): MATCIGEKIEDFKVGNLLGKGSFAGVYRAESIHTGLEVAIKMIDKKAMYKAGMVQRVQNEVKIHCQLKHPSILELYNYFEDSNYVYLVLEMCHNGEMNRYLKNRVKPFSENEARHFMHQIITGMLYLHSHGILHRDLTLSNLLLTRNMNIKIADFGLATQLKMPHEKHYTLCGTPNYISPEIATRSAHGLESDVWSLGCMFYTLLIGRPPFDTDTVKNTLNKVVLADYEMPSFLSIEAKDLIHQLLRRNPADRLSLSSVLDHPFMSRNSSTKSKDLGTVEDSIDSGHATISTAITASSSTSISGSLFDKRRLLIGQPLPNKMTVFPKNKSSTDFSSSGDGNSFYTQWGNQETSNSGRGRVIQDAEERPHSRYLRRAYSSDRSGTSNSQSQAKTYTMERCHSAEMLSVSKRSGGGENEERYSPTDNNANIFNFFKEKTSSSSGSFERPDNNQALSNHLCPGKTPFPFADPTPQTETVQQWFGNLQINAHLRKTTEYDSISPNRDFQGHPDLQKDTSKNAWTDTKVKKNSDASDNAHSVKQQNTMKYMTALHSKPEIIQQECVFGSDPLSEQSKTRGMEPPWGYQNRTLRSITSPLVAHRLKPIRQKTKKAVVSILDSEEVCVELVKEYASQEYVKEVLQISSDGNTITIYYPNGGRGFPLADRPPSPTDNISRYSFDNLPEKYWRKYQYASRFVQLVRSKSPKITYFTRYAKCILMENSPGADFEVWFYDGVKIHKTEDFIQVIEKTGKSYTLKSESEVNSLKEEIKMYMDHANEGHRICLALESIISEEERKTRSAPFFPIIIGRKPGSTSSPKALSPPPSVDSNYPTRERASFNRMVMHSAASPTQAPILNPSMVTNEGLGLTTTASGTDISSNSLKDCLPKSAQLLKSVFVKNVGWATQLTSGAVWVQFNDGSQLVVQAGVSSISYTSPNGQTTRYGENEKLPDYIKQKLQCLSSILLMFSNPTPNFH

TLK1 = target: T3, TLK1 (Homo sapiens, UniProt Q9UKI8)
T3 sequence (Q9UKI8 1-766): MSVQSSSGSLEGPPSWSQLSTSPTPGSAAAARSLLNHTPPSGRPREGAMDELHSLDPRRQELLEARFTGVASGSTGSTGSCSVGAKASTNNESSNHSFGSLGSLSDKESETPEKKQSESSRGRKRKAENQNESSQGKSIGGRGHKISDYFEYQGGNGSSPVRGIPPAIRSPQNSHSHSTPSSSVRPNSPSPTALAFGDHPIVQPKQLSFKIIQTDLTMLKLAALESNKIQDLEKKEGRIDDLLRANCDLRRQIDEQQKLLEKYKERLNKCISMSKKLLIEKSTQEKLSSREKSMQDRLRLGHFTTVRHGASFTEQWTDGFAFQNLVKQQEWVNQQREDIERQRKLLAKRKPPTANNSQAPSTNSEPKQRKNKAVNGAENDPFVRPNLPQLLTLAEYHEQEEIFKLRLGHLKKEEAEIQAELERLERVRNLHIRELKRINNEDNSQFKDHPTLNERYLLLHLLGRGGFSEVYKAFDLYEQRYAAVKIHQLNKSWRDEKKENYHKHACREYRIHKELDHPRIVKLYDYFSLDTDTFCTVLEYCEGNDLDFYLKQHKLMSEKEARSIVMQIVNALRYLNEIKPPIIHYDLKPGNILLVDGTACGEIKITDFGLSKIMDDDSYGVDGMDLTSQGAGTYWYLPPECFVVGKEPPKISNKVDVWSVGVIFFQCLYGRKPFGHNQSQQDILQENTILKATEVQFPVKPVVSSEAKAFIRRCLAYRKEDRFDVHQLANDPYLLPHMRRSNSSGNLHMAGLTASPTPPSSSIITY

p38a = p38a (Homo sapiens, UniProt Q16539)
Chain of p38a (Q16539 whole entry): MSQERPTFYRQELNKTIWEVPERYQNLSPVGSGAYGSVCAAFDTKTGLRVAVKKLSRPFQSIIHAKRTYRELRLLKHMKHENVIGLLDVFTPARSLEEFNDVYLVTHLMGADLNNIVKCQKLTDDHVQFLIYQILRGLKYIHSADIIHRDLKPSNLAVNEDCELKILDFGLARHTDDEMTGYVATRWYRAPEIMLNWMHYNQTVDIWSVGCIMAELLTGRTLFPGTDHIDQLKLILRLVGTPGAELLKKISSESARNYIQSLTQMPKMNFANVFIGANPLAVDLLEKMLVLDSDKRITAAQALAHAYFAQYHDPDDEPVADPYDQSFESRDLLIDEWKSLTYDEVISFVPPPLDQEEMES

Chain of HIPK2 (Q9H2X6 whole entry): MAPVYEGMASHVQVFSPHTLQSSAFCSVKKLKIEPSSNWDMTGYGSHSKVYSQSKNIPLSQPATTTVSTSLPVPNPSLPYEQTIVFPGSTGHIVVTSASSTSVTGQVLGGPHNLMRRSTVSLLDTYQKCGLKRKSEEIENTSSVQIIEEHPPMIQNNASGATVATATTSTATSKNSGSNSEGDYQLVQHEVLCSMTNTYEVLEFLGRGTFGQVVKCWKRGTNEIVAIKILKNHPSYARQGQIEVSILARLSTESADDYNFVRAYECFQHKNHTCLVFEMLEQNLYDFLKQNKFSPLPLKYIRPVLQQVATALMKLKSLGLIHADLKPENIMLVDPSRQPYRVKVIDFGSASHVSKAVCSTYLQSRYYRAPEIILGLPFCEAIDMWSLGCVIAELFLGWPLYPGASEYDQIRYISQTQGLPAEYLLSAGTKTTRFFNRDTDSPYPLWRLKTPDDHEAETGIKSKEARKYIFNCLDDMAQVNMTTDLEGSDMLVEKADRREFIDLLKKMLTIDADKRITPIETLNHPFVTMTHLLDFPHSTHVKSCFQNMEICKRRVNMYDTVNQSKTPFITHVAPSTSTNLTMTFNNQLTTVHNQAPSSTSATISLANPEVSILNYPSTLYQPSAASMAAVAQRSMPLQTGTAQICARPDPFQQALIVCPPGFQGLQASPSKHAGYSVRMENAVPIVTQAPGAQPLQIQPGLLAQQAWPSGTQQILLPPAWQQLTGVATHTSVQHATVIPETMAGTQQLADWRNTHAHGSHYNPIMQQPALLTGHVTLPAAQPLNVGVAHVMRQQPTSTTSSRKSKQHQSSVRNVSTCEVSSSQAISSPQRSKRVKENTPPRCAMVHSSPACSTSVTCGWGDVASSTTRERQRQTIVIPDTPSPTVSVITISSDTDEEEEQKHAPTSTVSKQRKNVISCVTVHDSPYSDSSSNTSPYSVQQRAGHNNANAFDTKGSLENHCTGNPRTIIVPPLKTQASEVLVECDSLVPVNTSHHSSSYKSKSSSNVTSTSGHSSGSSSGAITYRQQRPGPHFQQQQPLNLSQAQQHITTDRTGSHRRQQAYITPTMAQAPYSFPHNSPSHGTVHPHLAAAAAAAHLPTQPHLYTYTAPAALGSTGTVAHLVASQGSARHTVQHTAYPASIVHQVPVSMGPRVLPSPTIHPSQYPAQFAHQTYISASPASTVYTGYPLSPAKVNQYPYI
Chain of EpHA5 (P54756 whole entry): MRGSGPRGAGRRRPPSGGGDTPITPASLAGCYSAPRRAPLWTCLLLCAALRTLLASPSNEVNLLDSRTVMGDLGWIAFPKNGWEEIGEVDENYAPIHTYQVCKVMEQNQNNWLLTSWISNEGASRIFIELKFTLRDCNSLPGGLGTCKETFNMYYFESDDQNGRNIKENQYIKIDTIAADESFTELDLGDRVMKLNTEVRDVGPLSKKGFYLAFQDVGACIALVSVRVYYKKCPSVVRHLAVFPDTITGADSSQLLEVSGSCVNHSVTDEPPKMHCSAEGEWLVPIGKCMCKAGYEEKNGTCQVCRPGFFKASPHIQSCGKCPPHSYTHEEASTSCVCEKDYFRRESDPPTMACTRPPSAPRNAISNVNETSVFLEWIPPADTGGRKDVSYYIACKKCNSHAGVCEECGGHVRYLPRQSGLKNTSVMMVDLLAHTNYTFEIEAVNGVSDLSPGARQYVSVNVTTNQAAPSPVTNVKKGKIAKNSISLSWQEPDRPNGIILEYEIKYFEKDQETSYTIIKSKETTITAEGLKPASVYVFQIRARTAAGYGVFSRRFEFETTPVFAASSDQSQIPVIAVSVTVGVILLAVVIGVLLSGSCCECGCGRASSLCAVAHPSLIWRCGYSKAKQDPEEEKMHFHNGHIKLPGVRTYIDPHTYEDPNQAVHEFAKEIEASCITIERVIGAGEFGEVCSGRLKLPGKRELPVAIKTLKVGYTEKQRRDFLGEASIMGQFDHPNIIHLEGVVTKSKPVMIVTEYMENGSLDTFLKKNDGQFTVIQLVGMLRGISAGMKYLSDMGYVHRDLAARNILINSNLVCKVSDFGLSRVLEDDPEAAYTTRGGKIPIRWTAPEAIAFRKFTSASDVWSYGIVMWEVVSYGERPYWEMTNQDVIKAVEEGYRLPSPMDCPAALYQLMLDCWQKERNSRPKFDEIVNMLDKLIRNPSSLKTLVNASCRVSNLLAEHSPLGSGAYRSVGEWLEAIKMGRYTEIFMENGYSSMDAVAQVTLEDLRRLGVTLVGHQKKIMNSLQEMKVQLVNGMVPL
Chain of CaMK1d (Q8IU85 whole entry): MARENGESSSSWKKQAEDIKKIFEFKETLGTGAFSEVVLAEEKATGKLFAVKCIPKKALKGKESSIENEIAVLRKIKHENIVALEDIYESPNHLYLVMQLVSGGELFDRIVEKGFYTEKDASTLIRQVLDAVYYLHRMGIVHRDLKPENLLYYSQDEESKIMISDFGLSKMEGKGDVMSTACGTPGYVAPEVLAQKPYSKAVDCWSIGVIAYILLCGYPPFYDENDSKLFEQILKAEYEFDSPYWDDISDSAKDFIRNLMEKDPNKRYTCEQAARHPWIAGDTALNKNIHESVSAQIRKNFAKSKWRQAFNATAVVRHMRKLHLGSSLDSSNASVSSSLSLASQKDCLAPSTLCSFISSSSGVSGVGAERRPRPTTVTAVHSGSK
Chain of AAK1 (Q2M2I8 whole entry): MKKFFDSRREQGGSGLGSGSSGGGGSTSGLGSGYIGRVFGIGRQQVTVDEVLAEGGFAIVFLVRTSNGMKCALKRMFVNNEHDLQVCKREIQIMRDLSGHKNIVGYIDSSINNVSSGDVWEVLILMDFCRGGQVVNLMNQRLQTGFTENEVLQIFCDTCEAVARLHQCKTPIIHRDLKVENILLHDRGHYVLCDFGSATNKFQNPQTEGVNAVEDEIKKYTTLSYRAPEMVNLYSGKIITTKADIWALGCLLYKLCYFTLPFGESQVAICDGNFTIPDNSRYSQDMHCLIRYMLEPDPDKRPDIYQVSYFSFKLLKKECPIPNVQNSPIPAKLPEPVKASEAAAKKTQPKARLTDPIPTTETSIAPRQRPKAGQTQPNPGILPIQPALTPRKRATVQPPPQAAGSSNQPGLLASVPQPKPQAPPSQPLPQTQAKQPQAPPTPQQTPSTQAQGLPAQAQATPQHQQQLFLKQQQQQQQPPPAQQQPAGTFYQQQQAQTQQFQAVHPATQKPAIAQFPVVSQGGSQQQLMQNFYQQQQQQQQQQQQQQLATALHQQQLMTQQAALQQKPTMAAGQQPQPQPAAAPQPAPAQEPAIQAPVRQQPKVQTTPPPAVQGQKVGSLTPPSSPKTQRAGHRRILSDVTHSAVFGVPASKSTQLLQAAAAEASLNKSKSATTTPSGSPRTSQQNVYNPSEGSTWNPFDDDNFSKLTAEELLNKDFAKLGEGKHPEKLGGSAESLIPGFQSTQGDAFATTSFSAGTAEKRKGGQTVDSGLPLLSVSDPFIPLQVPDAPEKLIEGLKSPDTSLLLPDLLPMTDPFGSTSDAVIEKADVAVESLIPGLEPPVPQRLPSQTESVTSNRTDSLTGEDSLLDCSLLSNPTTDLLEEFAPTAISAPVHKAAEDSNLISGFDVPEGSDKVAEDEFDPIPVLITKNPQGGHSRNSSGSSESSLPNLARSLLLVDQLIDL
Chain of JNK2 (P45984 whole entry): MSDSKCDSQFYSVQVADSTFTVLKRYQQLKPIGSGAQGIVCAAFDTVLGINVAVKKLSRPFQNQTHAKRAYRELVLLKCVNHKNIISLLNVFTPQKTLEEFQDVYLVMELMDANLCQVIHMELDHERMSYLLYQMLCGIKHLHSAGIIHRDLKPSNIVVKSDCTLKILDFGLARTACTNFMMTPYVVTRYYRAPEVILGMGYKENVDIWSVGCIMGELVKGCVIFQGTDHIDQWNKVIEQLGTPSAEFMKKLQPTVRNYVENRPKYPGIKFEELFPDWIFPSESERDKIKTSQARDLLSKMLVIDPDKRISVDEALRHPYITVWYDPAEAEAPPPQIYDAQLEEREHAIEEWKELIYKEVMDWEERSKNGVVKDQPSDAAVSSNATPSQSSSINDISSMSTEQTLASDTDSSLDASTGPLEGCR

SMILES: CNc1ncc2cc(-c3ccc(-c4cccc(C)n4)cc3Cl)c(=O)n(CC3OCC(N)CO3)c2n1 (stereo not drawn) [compound 2, G-5555]
dTm G-5555 (2) (AAK1; 10 µM, binder): 0.6 °C | dTm G-5555 (2) (CaMK1d; 10 µM, binder): 4.5 °C | dTm G-5555 (2) (CaMK4; 10 µM, binder): 0.7 °C | dTm G-5555 (2) (EpHA5; 10 µM, binder): 2.7 °C | dTm G-5555 (2) (JNK2; 10 µM, binder): 0.6 °C | dTm G-5555 (2) (PLK4; 10 µM, binder): 3.4 °C | dTm G-5555 (2) (TLK1; 10 µM, binder): -0.3 °C | dTm G-5555 (2) (p38a; 10 µM, binder): 1.4 °C

SMILES: CNc1ncc2cc(-c3ccccc3Cl)c(=O)n(CCCCN)c2n1 [compound 4, 8-(4-Aminobutyl)-6-(2-chlorophenyl)-2-(methylamino)pyrido[2,3-d]pyrimidin-7(8H)-one]
ΔTm at 10 µM (AAK1; read-out: dTm MR21 (4)): 1.6 °C | ΔTm at 10 µM (CaMK1d; read-out: dTm MR21 (4)): 2.7 °C | ΔTm at 10 µM (CaMK4; read-out: dTm MR21 (4)): 0.8 °C | ΔTm at 10 µM (HIPK2; read-out: dTm MR21 (4)): 0.1 °C | ΔTm at 10 µM (JNK2; read-out: dTm MR21 (4)): -0.1 °C | ΔTm at 10 µM (PLK4; read-out: dTm MR21 (4)): 0 °C | ΔTm at 10 µM (TLK1; read-out: dTm MR21 (4)): 0.5 °C | ΔTm at 10 µM (p38a; read-out: dTm MR21 (4)): 8.8 °C

Next, values leading:

ΔTm at 10 µM (AAK1; read-out: dTm 7): 0.5 °C | ΔTm at 10 µM (CaMK1d; read-out: dTm 7): 0.4 °C | ΔTm at 10 µM (CaMK4; read-out: dTm 7): 0.1 °C | ΔTm at 10 µM (EpHA5; read-out: dTm 7): 3.2 °C | ΔTm at 10 µM (HIPK2; read-out: dTm 7): 0.5 °C | ΔTm at 10 µM (JNK2; read-out: dTm 7): 1.1 °C | ΔTm at 10 µM (PLK4; read-out: dTm 7): 0.4 °C | ΔTm at 10 µM (TLK1; read-out: dTm 7): 0.9 °C | ΔTm at 10 µM (p38a; read-out: dTm 7): 5.3 °C
SMILES: CNc1ncc2cc(-c3cc(Br)ccc3Cl)c(=O)n(C[C@H]3OC[C@H](N)CO3)c2n1 [compound 7, 8-(((2r,5r)-5-Amino-1,3-dioxan-2-yl)methyl)-6-(5-bromo-2-chlorophenyl)-2-(methylamino)pyrido[2,3-d]pyrimidin-7(8H)-one]

ΔTm at 10 µM (AAK1; read-out: dTm 6): 0.7 °C | ΔTm at 10 µM (CaMK1d; read-out: dTm 6): 2.1 °C | ΔTm at 10 µM (CaMK4; read-out: dTm 6): -0.1 °C | ΔTm at 10 µM (EpHA5; read-out: dTm 6): 4.5 °C | ΔTm at 10 µM (HIPK2; read-out: dTm 6): 0.2 °C | ΔTm at 10 µM (JNK2; read-out: dTm 6): -0.4 °C | ΔTm at 10 µM (PLK4; read-out: dTm 6): 0.4 °C | ΔTm at 10 µM (TLK1; read-out: dTm 6): 0 °C | ΔTm at 10 µM (p38a; read-out: dTm 6): 5.6 °C
SMILES: CNc1ncc2cc(-c3cc(Br)ccc3Cl)c(=O)n(CCCCN)c2n1 [compound 6, 8-(4-Aminobutyl)-6-(5-bromo-2-chlorophenyl)-2-(methylamino)pyrido[2,3-d]pyrimidin-7(8H)-one]

ΔTm at 10 µM (AAK1; read-out: dTm MR22 (5)): 0.4 °C | ΔTm at 10 µM (CaMK1d; read-out: dTm MR22 (5)): -1.2 °C | ΔTm at 10 µM (CaMK4; read-out: dTm MR22 (5)): -0.6 °C | ΔTm at 10 µM (HIPK2; read-out: dTm MR22 (5)): 0.1 °C | ΔTm at 10 µM (JNK2; read-out: dTm MR22 (5)): 0.2 °C | ΔTm at 10 µM (PLK4; read-out: dTm MR22 (5)): 0.3 °C | ΔTm at 10 µM (TLK1; read-out: dTm MR22 (5)): -1.3 °C | ΔTm at 10 µM (p38a; read-out: dTm MR22 (5)): -0.6 °C
SMILES: CNc1ncc2cc(-c3cc(F)ccc3F)c(=O)n(CCCCN)c2n1 [compound 5, 8-(4-Aminobutyl)-6-(2,5-difluorophenyl)-2-(methylamino)pyrido[2,3-d]pyrimidin-7(8H)-one]
